The Ki is a measure of affinity in units of concentration, obtained from inhibition or displacement. By inhibition is commonly meant the change of the read-out against control, counted positive when it falls. The IC50 is the concentration that gives 50% inhibition. Low readings indicate greater potency in that assay, high ones weaker potency in that assay.

Results on 21 compounds are retold here after patent publication US8710233B2 (Gruenenthal GmbH, priority 2005, dated 2014).

What all share (assay type): cell-based
The target in one test is T1, vanilloid receptor (VR1) (Homo sapiens, UniProt Q8NER1).
T1 construct: expressed in transfected cells; host or cells: CHO K1 cells (ECACC), stably transfected
T1 sequence (Q8NER1 whole entry): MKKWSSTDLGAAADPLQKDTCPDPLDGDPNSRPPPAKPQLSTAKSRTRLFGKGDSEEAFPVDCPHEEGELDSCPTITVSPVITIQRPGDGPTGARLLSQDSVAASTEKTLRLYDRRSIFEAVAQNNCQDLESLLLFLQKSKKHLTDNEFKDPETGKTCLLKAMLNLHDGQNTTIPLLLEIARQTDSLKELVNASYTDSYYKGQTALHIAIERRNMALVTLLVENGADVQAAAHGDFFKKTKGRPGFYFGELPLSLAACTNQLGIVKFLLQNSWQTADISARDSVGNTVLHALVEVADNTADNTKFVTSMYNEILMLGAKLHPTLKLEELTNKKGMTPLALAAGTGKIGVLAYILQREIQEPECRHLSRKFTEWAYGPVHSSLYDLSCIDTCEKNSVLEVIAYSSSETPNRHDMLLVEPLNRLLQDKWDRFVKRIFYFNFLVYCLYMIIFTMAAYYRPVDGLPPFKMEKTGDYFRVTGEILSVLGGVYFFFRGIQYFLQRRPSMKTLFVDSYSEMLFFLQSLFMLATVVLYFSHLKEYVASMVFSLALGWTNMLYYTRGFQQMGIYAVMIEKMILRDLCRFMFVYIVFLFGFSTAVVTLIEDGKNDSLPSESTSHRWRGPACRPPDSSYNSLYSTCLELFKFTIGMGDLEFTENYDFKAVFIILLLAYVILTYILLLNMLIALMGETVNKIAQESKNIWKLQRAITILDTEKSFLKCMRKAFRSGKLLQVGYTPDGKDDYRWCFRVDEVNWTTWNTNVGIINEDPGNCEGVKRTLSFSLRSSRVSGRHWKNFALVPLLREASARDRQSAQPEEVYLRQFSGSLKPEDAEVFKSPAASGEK
Put plainly: FLIPR Ca2+ influx assay on CHO K1 cells transfected with the VR1 gene (pharmacological method II). The settings on record: for Ki: table 4, capsaicin, read-out: Ki (human) Cap.

Test [1] deals with T2, vanilloid receptor 1 (VR1/TRPV1) of the rat species (Rattus norvegicus, UniProt O35433).
T2 construct: The spinal column is removed from decapitated rats; from tissue; host or cells: primary cells dissociated from rat dorsal root ganglia
T2 sequence (O35433 whole entry): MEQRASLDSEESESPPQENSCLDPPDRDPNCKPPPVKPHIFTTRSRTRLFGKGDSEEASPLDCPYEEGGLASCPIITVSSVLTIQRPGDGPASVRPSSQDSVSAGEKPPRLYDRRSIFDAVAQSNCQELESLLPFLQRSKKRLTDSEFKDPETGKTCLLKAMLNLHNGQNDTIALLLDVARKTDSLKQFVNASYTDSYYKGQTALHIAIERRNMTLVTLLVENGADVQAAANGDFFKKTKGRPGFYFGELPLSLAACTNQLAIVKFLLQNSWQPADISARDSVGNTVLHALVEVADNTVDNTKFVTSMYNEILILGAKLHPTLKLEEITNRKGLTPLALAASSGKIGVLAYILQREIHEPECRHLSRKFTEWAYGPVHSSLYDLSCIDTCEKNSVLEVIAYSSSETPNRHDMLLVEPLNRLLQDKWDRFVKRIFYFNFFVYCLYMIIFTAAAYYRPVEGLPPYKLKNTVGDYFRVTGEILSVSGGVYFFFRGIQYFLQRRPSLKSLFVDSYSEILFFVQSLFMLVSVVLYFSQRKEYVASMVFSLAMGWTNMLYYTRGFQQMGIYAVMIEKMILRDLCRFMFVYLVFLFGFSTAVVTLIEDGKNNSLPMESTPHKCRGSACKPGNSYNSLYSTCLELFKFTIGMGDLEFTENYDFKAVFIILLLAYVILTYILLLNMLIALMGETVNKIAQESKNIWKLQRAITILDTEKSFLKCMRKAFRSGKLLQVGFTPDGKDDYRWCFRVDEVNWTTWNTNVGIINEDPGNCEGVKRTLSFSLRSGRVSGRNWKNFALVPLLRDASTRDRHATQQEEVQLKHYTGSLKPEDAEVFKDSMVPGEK
Nature of the test: FLIPR Ca2+ influx assay on rat dorsal root ganglia cells (pharmacological method I). As to conditions: for Ki: table 4, capsaicin. In outline:
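Primary rat dorsal root ganglion cells loaded with 2 μM Fluo-4, Ca2+ influx read on FLIPR as peak fluorescence. Triplicates, at least 3 independent experiments.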

For another test, the target named is VR1/TRPV1 receptor (Homo sapiens, UniProt Q8NER1). Nature of the test: IC50 (human) after pH stimulus. As to conditions: for IC50: table 4.
Sequence of VR1/TRPV1 receptor (Q8NER1 whole entry): as the sequence (Q8NER1 whole entry) above
The mark [2] stands for this setting: @ 1 μM, ne = no effect, read-out: inhibition in percent, IC50 (human) after pH stimulus.
The mark [3] stands for this setting: read-out: inhibition in percent, IC50 (human) after pH stimulus.

SMILES strings stand for the structures. Like-named read-outs stand apart in the source and are kept apart here.

As for `Cc1cc(C(C)C(=O)NCc2ccc(C(F)(F)F)nc2N2CCC(C)CC2)ccc1NS(C)(=O)=O` (centres unmarked) [Example 196, 2-(4-methylsulfonamido-3-methyl-phenyl)-N-(4-methyl-6′-trifluoromethyl-3,4,5,6-tetrahydro-2H-[1,2′]bipyridinyl-3′-ylmethyl)-propionamide], the figures for the Ki (on vanilloid receptor (VR1); in test [1] (read-out: Ki (rat) Cap.)) were 0.6 nM and 0.4 nM, respectively. The inhibition at 1 µM on VR1/TRPV1 receptor (setting [2]) worked out at 41%.
Take `CCC1CCN(c2nc(C(F)(F)F)ccc2CNC(=O)C(C)c2ccc(NS(C)(=O)=O)c(F)c2)CC1` (centres unmarked) [Example 197, N-(4-ethyl-6′-trifluoromethyl-3,4,5,6-tetrahydro-2H-[1,2′]bipyridinyl-3′-ylmethyl)-2-(3-fluoro-4-methylsulfonamido-phenyl)-propionamide]: the inhibition constant Ki stood at 1.5 nM on vanilloid receptor (VR1) and 0.4 nM in test [1] (read-out: Ki (rat) Cap.). For the same compound, the IC50 at VR1/TRPV1 receptor was found to be 97.3 nM.
As for `CC(C(=O)NCc1ccc(C(F)(F)F)nc1Oc1ccccc1)c1ccc(NS(C)(=O)=O)c(F)c1` (centres unmarked) [Example 198, 2-(3-fluoro-4-methylsulfonamido-phenyl)-N-(2-phenoxy-6-trifluoromethyl-pyridin-3-ylmethyl)-propionamide], the inhibition constant (Ki) at vanilloid receptor (VR1) turned out to be 6.4 nM; in test [1] (Ki (rat) Cap.), 0.9 nM. Also, the inhibition at 0.1 µM at VR1/TRPV1 receptor (setting [3]) was 11%. Further, the inhibition at 1 µM at VR1/TRPV1 receptor (setting [2]) was 31%.
For the compound `COCC1CCN(c2nc(C(F)(F)F)ccc2CNC(=O)C(C)c2ccc(NS(C)(=O)=O)c(F)c2)CC1` (centres unmarked) [Example 199, 2-(3-fluoro-4-methylsulfonamido-phenyl)-N-(4-methoxymethyl-6′-trifluoromethyl-3,4,5,6-tetrahydro-2H-[1,2′]bipyridinyl-3′-ylmethyl)-propionamide], the inhibition constant (Ki) was 1.4 nM on vanilloid receptor (VR1) and 1.6 nM in test [1] (read-out: Ki (rat) Cap.). For the same compound, at VR1/TRPV1 receptor, the IC50 stood at 31 nM.
For the compound `CC(C(=O)NCc1ccc(C(F)(F)F)nc1N1CCC(c2ccc(F)cc2)CC1)c1ccc(NS(C)(=O)=O)c(F)c1` (centres unmarked) [Example 200, 2-(3-fluoro-4-methylsulfonamido-phenyl)-N-[4-(4-fluoro-phenyl)-6′-trifluoromethyl-3,4,5,6-tetrahydro-2H-[1,2′]bipyridinyl-3′-ylmethyl]-propionamide], the Ki on vanilloid receptor (VR1) turned out to be 4.2 nM; in test [1] (read-out: Ki (rat) Cap.), 3.4 nM. The compound further registered an IC50 against VR1/TRPV1 receptor of 81 nM.
Taken in the same sequence, the figures for `CC(C(=O)NCc1ccc(C(F)(F)F)nc1N1CCN(c2ccccc2F)CC1)c1ccc(NS(C)(=O)=O)c(F)c1` (centres unmarked) [Example 201, 2-(3-fluoro-4-methylsulfonamido-phenyl)-N-{2-[4-(2-fluoro-phenyl)-piperazin-1-yl]-6-trifluoromethyl-pyridin-3-ylmethyl}-propionamide] were 2.4 nM, 1.2 nM and 34 nM.
For the compound `CC(C(=O)NCc1ccc(C(F)(F)F)nc1OCc1ccccn1)c1ccc(NS(C)(=O)=O)c(F)c1` (centres unmarked) [Example 202, 2-(3-fluoro-4-methylsulfonamido-phenyl)-N-[2-(pyridin-2-ylmethoxy)-6-trifluoromethyl-pyridin-3-ylmethyl]-propionamide], the Ki at vanilloid receptor (VR1) worked out at 29.5 nM; in test [1] (Ki (rat) Cap.), 24.8 nM. In addition, at VR1/TRPV1 receptor (setting [3]), the inhibition at 0.1 µM turned out to be 16%. Also, the inhibition at 1 µM at VR1/TRPV1 receptor (setting [2]) was found to be 30%.
Take `Cc1cc(C(C)C(=O)NCc2ccc(C(F)(F)F)nc2N2CCN(c3ccccc3)CC2)ccc1NS(C)(=O)=O` (centres unmarked) [Example 203, 2-(4-methylsulfonamido-3-methyl-phenyl)-N-[2-(4-phenyl-piperazin-1-yl)-6-trifluoromethyl-pyridin-3-ylmethyl]-propionamide]: the values for the Ki (on vanilloid receptor (VR1); in test [1] (read-out: Ki (rat) Cap.)) were 3 nM and 3.3 nM, respectively. The inhibition at 0.1 µM on VR1/TRPV1 receptor (setting [3]) is 0%. Also, the inhibition at 1 µM on VR1/TRPV1 receptor (setting [2]) is 24%.
In the case of `Cc1cc(C(C)C(=O)NCc2ccc(C(F)(F)F)nc2OCc2ccccc2)ccc1NS(C)(=O)=O` (centres unmarked) [Example 204, N-(2-benzyloxy-6-trifluoromethyl-pyridin-3-ylmethyl)-2-(4-methylsulfonamido-3-methyl-phenyl)-propionamide], the Ki at vanilloid receptor (VR1) worked out at 4 nM; in test [1] (read-out: Ki (rat) Cap.) it was 1.6 nM. Besides, 148 nM corresponded to half-maximal inhibition against VR1/TRPV1 receptor (IC50).
Regarding `CC(C(=O)NCc1ccc(C(F)(F)F)nc1N(C)c1ccccc1)c1ccc(NS(C)(=O)=O)c(F)c1` (centres unmarked) [Example 205, 2-(3-fluoro-4-methylsulfonamido-phenyl)-N-[2-(methyl-phenyl-amino)-6-trifluoromethyl-pyridin-3-ylmethyl]-propionamide], the inhibitory constant (Ki) at vanilloid receptor (VR1) turned out to be 0.9 nM; in test [1] (read-out: Ki (rat) Cap.), 11.4 nM. 57.4 nM corresponded to half-maximal inhibition against VR1/TRPV1 receptor (IC50).
For the compound `CC(C(=O)NCc1ccc(C(F)(F)F)nc1OCc1ccc(C(F)(F)F)cc1)c1ccc(NS(C)(=O)=O)c(F)c1` (centres unmarked) [Example 206, 2-(3-fluoro-4-methylsulfonamido-phenyl)-N-[6-trifluoromethyl-2-(4-trifluoromethyl-benzyloxy)-pyridin-3-ylmethyl]-propionamide], the results for the Ki (on vanilloid receptor (VR1); in test [1] (Ki (rat) Cap.)) were 3.2 nM and 0.7 nM, respectively. Moreover, the concentration for half-maximal inhibition (IC50) against VR1/TRPV1 receptor was found to be 66.1 nM.
On to `CC(C(=O)NCc1ccc(C(F)(F)Cl)nc1N1CCN(c2ccccc2)CC1)c1ccc(NS(C)(=O)=O)c(F)c1` (centres unmarked) [Example 207], for which the inhibitory constant (Ki) (on vanilloid receptor (VR1); in test [1] (read-out: Ki (rat) Cap.)) was 0.8 nM throughout. The same compound returned an IC50 on VR1/TRPV1 receptor of 38.6 nM.
As to `CC(C)COc1nc(C(F)(F)Cl)ccc1CNC(=O)C(C)c1ccc(NS(C)(=O)=O)c(F)c1` (centres unmarked) [Example 208, N-[6-(chloro-difluoro-methyl)-2-isobutoxy-pyridin-3-ylmethyl]-2-(3-fluoro-4-methylsulfonamido-phenyl)-propionamide], the inhibition constant (Ki) on vanilloid receptor (VR1) came out at 0.6 nM; in test [1] (read-out: Ki (rat) Cap.), 0.5 nM. Further, on VR1/TRPV1 receptor, inhibition was half-maximal at 38.6 nM (IC50).
Taken in the same sequence, the figures for `CC(C(=O)NCc1ccc(C(F)(F)F)nc1N1CCC(C)(C)CC1)c1ccc(NS(C)(=O)=O)c(F)c1` (centres unmarked) [Example 210, N-(4,4-dimethyl-6′-trifluoromethyl-3,4,5,6-tetrahydro-2H-[1,2′]bipyridinyl-3′-ylmethyl)-2-(3-fluoro-4-methylsulfonamido-phenyl)-propionamide] were 0.3 nM, 0.2 nM and 8 nM.
Taken in the same sequence, the figures for `CC(C(=O)NCc1ccc(C(F)(F)F)nc1OCc1cccnc1)c1ccc(NS(C)(=O)=O)c(F)c1` (centres unmarked) [Example 211, 2-(3-fluoro-4-methylsulfonamido-phenyl)-N-[2-(pyridin-3-ylmethoxy)-6-trifluoromethyl-pyridin-3-ylmethyl]-propionamide] were 142 nM, 30.3 nM and 3440 nM.
Turning to `CC(C(=O)NCc1ccc(C(F)(F)F)nc1N1CCN(c2ncccc2C(F)(F)F)CC1)c1ccc(NS(C)(=O)=O)c(F)c1` (centres unmarked) [Example 212, 2-(3-fluoro-4-methylsulfonamido-phenyl)-N-{6-trifluoromethyl-2-[4-(3-trifluoromethyl-pyridin-2-yl)-piperazin-1-yl]-pyridin-3-ylmethyl}-propionamide], the values for the inhibitory constant (Ki) (on vanilloid receptor (VR1); in test [1] (read-out: Ki (rat) Cap.)) were 4.2 nM and 3.6 nM, respectively. For the same compound, the inhibition at 0.1 µM on VR1/TRPV1 receptor (setting [3]) turned out to be 11%. Besides, the inhibition at 1 µM on VR1/TRPV1 receptor (setting [2]) turned out to be 33%.
As for `CC(C(=O)NCc1ccc(C(F)(F)F)nc1N1CCN(c2ncccc2C(F)(F)F)CC1)c1ccc(NS(C)(=O)=O)c(F)c1` (centres unmarked) [Example 213, 2-(3-fluoro-4-methylsulfonamido-phenyl)-N-{6-trifluoromethyl-2-[4-(3-trifluoromethyl-pyridin-2-yl)-piperazin-1-yl]-pyridin-3-ylmethyl}-propionamide], the Ki turned out to be 2.8 nM on vanilloid receptor (VR1) and 2 nM in test [1] (read-out: Ki (rat) Cap.). The “inhibition in percent, IC50 (human) after pH stimulus” value on VR1/TRPV1 receptor (@ 1 μM, ne = no effect) turned out to be 37%. Also, the inhibition at 10 µM on VR1/TRPV1 receptor (@ 10 μM, read-out: inhibition in percent, IC50 (human) after pH stimulus) was 49%.
For the compound `CC(C(=O)NCc1ccc(C(F)(F)F)nc1N1CCN(c2ccccn2)CC1)c1ccc(NS(C)(=O)=O)c(F)c1` (centres unmarked) [Example 214, 2-(3-fluoro-4-methylsulfonamido-phenyl)-N-[2-(4-pyridin-2-yl-piperazin-1-yl)-6-trifluoromethyl-pyridin-3-ylmethyl]-propionamide], the inhibitory constant (Ki) worked out at 1.4 nM on vanilloid receptor (VR1) and 1.5 nM in test [1] (read-out: Ki (rat) Cap.). At VR1/TRPV1 receptor, this compound returned a half-inhibitory concentration (IC50) of 108 nM.
Turning to `CC(C(=O)NCc1ccc(C(F)(F)F)nc1)c1ccc(NS(C)(=O)=O)c(F)c1` (centres unmarked) [Example 215, 2-(3-fluoro-4-methylsulfonamido-phenyl)-N-(6-trifluoromethyl-pyridin-3-ylmethyl)-propionamide], the inhibition at 10 µM came out at 37% on vanilloid receptor (VR1) (CHO-K1, @ 10 μM, read-out: inhibition in percent, Ki (human) Cap.) and 48% in test [1] (@ 10 μM, read-out: inhibition in percent, Ki (rat) Cap.). Also, the inhibition at 25 µM at VR1/TRPV1 receptor (@ 25 μM, read-out: inhibition in percent, IC50 (human) after pH stimulus) is 15%.
In the case of `CC(C(=O)NCc1ccc(C(F)(F)F)cc1N1CCC(C)(C)CC1)c1ccc(NS(C)(=O)=O)c(F)c1` (centres unmarked) [Example 218, N-[2-(4,4-dimethyl-piperidin-1-yl)-4-trifluoromethyl-benzyl]-2-(3-fluoro-4-methylsulfonamido-phenyl)-propionamide], the figures for the inhibition constant (Ki) (on vanilloid receptor (VR1); in test [1] (read-out: Ki (rat) Cap.)) were 1.3 nM and 0.4 nM, respectively. The same compound gave a half-inhibitory concentration (IC50) at VR1/TRPV1 receptor of 13.8 nM.
For `Cc1ccc(N2CCN(c3nc(C(F)(F)F)ccc3CNC(=O)C(C)c3ccc(NS(C)(=O)=O)c(F)c3)CC2)cc1` (centres unmarked) [Example 219, 2-(3-fluoro-4-methylsulfonamido-phenyl)-N-[2-(4-p-tolyl-piperazin-1-yl)-6-trifluoromethyl-pyridin-3-ylmethyl]-propionamide], in that order: 3.3 nM, 2.4 nM and 38.3 nM.
